Measured values taken from US20160185797A1, “ALKYNYL ALCOHOLS AND METHODS OF USE” (Genentech, Inc., priority 2013, published 2016).
Where two headings read alike, the source gives them in different places.

What was measured:
[1] = target: T1, nuclear factor-kappa B (NF-kB)-inducing kinase (NIK) (Homo sapiens, UniProt Q99558); test: NIK enzyme inhibition assay (Transcreener ADP fluorescence polarization, NIK ADP-FP); assay type: biochemical
T1 construct: made in house; host or cells: baculovirus-infected insect cells
T1 sequence (Q99558 whole entry): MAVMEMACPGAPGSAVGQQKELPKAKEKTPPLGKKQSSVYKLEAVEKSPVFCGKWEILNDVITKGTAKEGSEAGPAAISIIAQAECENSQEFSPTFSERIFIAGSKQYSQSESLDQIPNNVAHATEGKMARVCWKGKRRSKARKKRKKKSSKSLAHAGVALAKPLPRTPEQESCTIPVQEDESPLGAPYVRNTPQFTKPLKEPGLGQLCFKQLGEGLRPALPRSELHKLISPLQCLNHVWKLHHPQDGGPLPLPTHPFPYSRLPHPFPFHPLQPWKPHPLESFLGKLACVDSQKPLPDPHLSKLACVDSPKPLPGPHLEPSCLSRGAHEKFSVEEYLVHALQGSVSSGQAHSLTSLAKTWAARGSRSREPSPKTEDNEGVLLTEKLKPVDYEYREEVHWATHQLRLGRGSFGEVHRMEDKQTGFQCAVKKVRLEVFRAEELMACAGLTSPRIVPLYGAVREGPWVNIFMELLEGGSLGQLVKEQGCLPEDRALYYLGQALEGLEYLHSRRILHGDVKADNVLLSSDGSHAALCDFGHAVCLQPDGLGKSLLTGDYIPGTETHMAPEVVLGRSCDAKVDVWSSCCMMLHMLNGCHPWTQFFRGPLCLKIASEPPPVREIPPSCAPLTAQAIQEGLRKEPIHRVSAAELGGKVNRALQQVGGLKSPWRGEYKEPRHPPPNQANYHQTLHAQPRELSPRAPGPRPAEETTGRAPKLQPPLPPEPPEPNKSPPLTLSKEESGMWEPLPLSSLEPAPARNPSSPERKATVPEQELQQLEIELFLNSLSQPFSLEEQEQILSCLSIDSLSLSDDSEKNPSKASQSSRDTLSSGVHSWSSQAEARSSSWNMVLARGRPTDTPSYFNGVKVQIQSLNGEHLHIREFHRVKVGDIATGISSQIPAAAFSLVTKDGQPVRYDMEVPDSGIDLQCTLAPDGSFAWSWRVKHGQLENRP

[2] = system: REL-A (p65) nuclear translocation in HeLa cells; test: REL-A (p65) nuclear translocation assay in HeLa cells, TNF-α stimulated (classical NF-kB signaling), high content imaging; assay type: cell-based; details: compound 4.5 h, then 10 ng/mL TNF-α for 30 minutes, read-out: REL-A HeLa Transloc Assay (IC50)
In short: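 HeLa cells in medium with 10% fetal bovine serum were exposed to compounds (0.2% DMSO final) for 4.5 hours, then stimulated with 10 ng/mL TNF-α for 30 minutes. After fixation in 4% paraformaldehyde and permeabilization with 0.1% Triton X-100, cells were stained with 400 ng/mL anti-REL-A (p65) antibody, an Alexa488 secondary and DRAQ5. Opera imaging quantified the nuclear-to-cytoplasmic signal ratio to give IC50.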

[3] = system: p52 (NF-kB2) nuclear translocation in HeLa cells; test: p52 (NF-kB2) nuclear translocation assay in HeLa cells, anti-lymphotoxin beta receptor antibody stimulated (non-classical NF-kB signaling), high content imaging; assay type: cell-based; details: 100 ng/mL anti-lymphotoxin beta receptor antibody for 5 hours, read-out: p52 HeLa Transloc Assay (IC50)
In short: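 HeLa cells in 10% FBS medium were treated with compound (0.2% DMSO final) and stimulated with 100 ng/mL anti-lymphotoxin beta receptor antibody for 5 h. Fixed cells were immunostained for p52 and imaged with DRAQ5 nuclear stain. Translocation is the nuclear to cytoplasmic intensity ratio, […].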

[4] = purified NIK 0.5 nM, 10 μM ATP, pH 7.2, Ki from Morrison's quadratic equation

Compound: CN1CC[C@@](O)(C#Cc2cccc(-c3nc(C(N)=O)c(NC[C@@H]4CCO4)cc3F)c2)C1=O [Example 81, 5-fluoro-6-[3-[2-[(3R)-3-hydroxy-1-methyl-2-oxo-pyrrolidin-3-yl]ethynyl]phenyl]-3-[[(2S)-oxetan-2-yl]methylamino] pyridine-2-carboxamide]
- Ki [1]: 0.05 nM
- IC50 ([2]; Homo sapiens, HeLa): ≥ 2000 nM
- IC50 ([3]; Homo sapiens): 50.8 nM

Compound: CN1CC[C@@](O)(C#Cc2ccc(F)c(-c3ccc(NC4COC4)c(C(N)=O)n3)c2)C1=O [Example 85, 6-[2-fluoro-5-[2-[(3R)-3-hydroxy-1-methyl-2-oxo-pyrrolidin-3-yl]ethynyl]phenyl]-3-(oxetan-3-ylamino)pyridine-2-carboxamide]
- Ki [1]: 0.05 nM
- IC50 ([2]; Homo sapiens, HeLa): 6320 nM
- IC50 ([3]; Homo sapiens): 5.88 nM

Compound: CN1CC[C@@](O)(C#Cc2cccc(-c3nc(C(N)=O)cc(-c4cncn4C)n3)c2)C1=O [Example 66, 2-[3-[2-[(3R)-3-hydroxy-1-methyl-2-oxo-pyrrolidin-3-yl]ethynyl]phenyl]-6-(3-methylimidazol-4-yl) pyrimidine-4-carboxamide]
- Ki [1]: 0.16 nM
- IC50 ([2]; Homo sapiens, HeLa): ≥ 20000 nM
- IC50 ([3]; Homo sapiens): 139 nM

Compound: CN1CC[C@@](O)(C#Cc2cccc(-c3cc(C(F)F)cc(C(N)=O)n3)c2)C1=O [Example 173, 4-(difluoromethyl)-6-[3-[2-[(3R)-3-hydroxy-1-methyl-2-oxo-pyrrolidin-3-yl]ethynyl]phenyl]pyridine-2-carboxamide]
- Ki [1]: 0.31 nM
- IC50 ([2]; Homo sapiens, HeLa): > 2000 nM
- IC50 ([3]; Homo sapiens): 108 nM

Compound: CN1CC[C@@](O)(C#Cc2cccc(-c3nc(OC4COC4)cc(C(N)=O)n3)c2)C1=O [Example 99, 2-[3-[2-[(3R)-3-hydroxy-1-methyl-2-oxo-pyrrolidin-3-yl]ethynyl]phenyl]-6-(oxetan-3-yloxy) pyrimidine-4-carboxamide]
- Ki [1]: 0.48 nM
- IC50 ([2]; Homo sapiens, HeLa): ≥ 20000 nM
- IC50 ([3]; Homo sapiens): 104 nM

Compound: CN1CC[C@@](O)(C#Cc2cc3c(c(-c4cccc(C(N)=O)n4)c2)OCC3)C1=O [Example 77, 6-[5-[2-[(3R)-3-hydroxy-1-methyl-2-oxo-pyrrolidin-3-yl]ethynyl]-2,3-dihydrobenzofuran-7-yl] pyridine-2-carboxamide]
- Ki [1]: 0.99 nM
- IC50 ([2]; Homo sapiens, HeLa): ≥ 20000 nM
- IC50 ([3]; Homo sapiens): 247 nM

Compound: COc1cc(-c2cccc(C#C[C@]3(O)CCN(C)C3=O)c2)nc(C(N)=O)n1 [Example 136, 4-[3-[2-[(3R)-3-hydroxy-1-methyl-2-oxo-pyrrolidin-3-yl]ethynyl]phenyl]-6-methoxy-pyrimidine-2-carboxamide]
- Ki [1]: 0.5 nM
- IC50 ([2]; Homo sapiens, HeLa): ≥ 2000 nM
- IC50 ([3]; Homo sapiens): 152 nM

Compound: Cc1ncc(-c2cccc(C#C[C@]3(O)CCN(C)C3=O)c2)nc1C(N)=O [Example 165, 6-[3-[2-[(3R)-3-hydroxy-1-methyl-2-oxo-pyrrolidin-3-yl]ethynyl]phenyl]-3-methyl-pyrazine-2-carboxamide]
- Ki [1]: 0.08 nM
- IC50 ([2]; Homo sapiens, HeLa): > 2000 nM
- IC50 ([3]; Homo sapiens): 180 nM

Compound: CN1CC[C@@](O)(C#Cc2cccc(-c3ncc(N[C@@H]4CCOC4)c(C(N)=O)n3)c2)C1=O [Example 143, 2-[3-[2-[(3R)-3-hydroxy-1-methyl-2-oxo-pyrrolidin-3-yl]ethynyl]phenyl]-5-[[(3R)-tetrahydrofuran-3-yl]amino] pyrimidine-4-carboxamide]
- Ki [1]: 0.05 nM
- IC50 ([2]; Homo sapiens, HeLa): ≥ 20000 nM
- IC50 ([3]; Homo sapiens): 8.12 nM

Compound: COC[C@@H](C)Nc1ccc(-c2cc(C#C[C@]3(O)CCN(C)C3=O)ccc2F)nc1C(N)=O [Example 148, 6-[2-fluoro-5-[2-[(3R)-3-hydroxy-1-methyl-2-oxo-pyrrolidin-3-yl]ethynyl]phenyl]-3-[[(1R)-2-methoxy-1-methyl-ethyl]amino] pyridine-2-carboxamide]
- Ki [1]: 0.19 nM
- IC50 ([2]; Homo sapiens, HeLa): ≥ 2000 nM
- IC50 ([3]; Homo sapiens): 52.4 nM

Compound: Cc1cc(C(N)=O)nc(-c2ccc(F)c(C#C[C@]3(O)CCN(C)C3=O)c2)c1 [Example 164, 6-[4-fluoro-3-[2-[(3R)-3-hydroxy-1-methyl-2-oxo-pyrrolidin-3-yl]ethynyl]phenyl]-4-methyl-pyridine-2-carboxamide]
- Ki [1]: < 0.05 nM
- IC50 ([2]; Homo sapiens, HeLa): > 2000 nM
- IC50 ([3]; Homo sapiens): 62 nM

Compound: CN1CC[C@@](O)(C#Cc2cccc(-c3nc(C(N)=O)cc(-c4cc(F)ccc4F)n3)c2)C1=O [Example 98, 6-(2,5-difluorophenyl)-2-[3-[2-[(3R)-3-hydroxy-1-methyl-2-oxo-pyrrolidin-3-yl]ethynyl]phenyl]pyrimidine-4-carboxamide]
- Ki [1]: 0.23 nM
- IC50 ([2]; Homo sapiens, HeLa): ≥ 20000 nM
- IC50 ([3]; Homo sapiens): 82 nM

Compound: CN1CC[C@@](O)(C#Cc2cccc(-c3nc(C(N)=O)cc4c3CCC4)c2)C1=O [Example 46, 1-(3-[2-[(3R)-3-hydroxy-1-methyl-2-oxopyrrolidin-3-yl]ethynyl]phenyl)-5H,6H,7H-cyclopenta[c] pyridine-3-carboxamide]
- Ki [1]: 0.62 nM
- IC50 ([2]; Homo sapiens, HeLa): > 20000 nM
- IC50 ([3]; Homo sapiens): 103 nM

Compound: CN1CC[C@@](O)(C#Cc2cccc(-c3nc(C(N)=O)cn4ccnc34)c2)C1=O [Example 48, 8-[3-[2-[(3R)-3-hydroxy-1-methyl-2-oxo-pyrrolidin-3-yl]ethynyl]phenyl] imidazo[1,2-a]pyrazine-6-carboxamide]
- Ki [1, 4]: 0.39 nM
- IC50 [2]: ≥ 20000 nM
- IC50 [3]: 122 nM

Compound: CN1CC[C@@](O)(C#Cc2cccc(-c3cc(-c4ncccn4)cc(C(N)=O)n3)c2)C1=O [Example 129, 6-[3-[2-[(3R)-3-hydroxy-1-methyl-2-oxo-pyrrolidin-3-yl]ethynyl]phenyl]-4-pyrimidin-2-yl-pyridine-2-carboxamide]
- Ki [1]: 0.3 nM
- IC50 ([2]; Homo sapiens, HeLa): ≥ 2000 nM
- IC50 ([3]; Homo sapiens): 155 nM

Compound: CN1CC[C@@](O)(C#Cc2cccc(-c3cc(N)cc(C(N)=O)n3)c2)C1=O [Example 124, 4-amino-6-[3-[2-[(3R)-3-hydroxy-1-methyl-2-oxo-pyrrolidin-3-yl]ethynyl]phenyl]pyridine-2-carboxamide]
- Ki [1]: 0.05 nM
- IC50 ([2]; Homo sapiens, HeLa): ≥ 2000 nM
- IC50 ([3]; Homo sapiens): 300 nM

Compound: Cc1nc(-c2cccc(C#C[C@]3(O)CCN(C)C3=O)c2)nc(C(N)=O)c1N [Example 172, 5-amino-2-[3-[2-[(3R)-3-hydroxy-1-methyl-2-oxo-pyrrolidin-3-yl]ethynyl]phenyl]-6-methyl-pyrimidine-4-carboxamide]
- Ki [1]: 0.36 nM
- IC50 ([2]; Homo sapiens, HeLa): > 2000 nM
- IC50 ([3]; Homo sapiens): 78 nM

Compound: CN1CC[C@@](O)(C#Cc2cccc(-c3nc(C(N)=O)c(NCc4ccon4)cc3F)c2)C1=O [Example 120, 5-fluoro-6-[3-[2-[(3R)-3-hydroxy-1-methyl-2-oxo-pyrrolidin-3-yl]ethynyl]phenyl]-3-(isoxazol-3-ylmethylamino)pyridine-2-carboxamide]
- Ki [1]: 0.33 nM
- IC50 ([2]; Homo sapiens, HeLa): ≥ 2000 nM
- IC50 ([3]; Homo sapiens): 26.6 nM

Compound: Cc1cn2cc(C(N)=O)nc(-c3cccc(C#C[C@]4(O)CCN(C)C4=O)c3)c2n1 [Example 76, 8-[3-[2-[(3R)-3-hydroxy-1-methyl-2-oxo-pyrrolidin-3-yl]ethynyl]phenyl]-2-methyl-imidazo[1,2-a] pyrazine-6-carboxamide]
- Ki [1]: 0.86 nM
- IC50 ([2]; Homo sapiens, HeLa): ≥ 20000 nM
- IC50 ([3]; Homo sapiens): 101 nM

Compound: CN1CC[C@@](O)(C#Cc2cccc(-c3cc(-c4cnccn4)cc(C(N)=O)n3)c2)C1=O [Example 127, 6-[3-[2-[(3R)-3-hydroxy-1-methyl-2-oxo-pyrrolidin-3-yl]ethynyl]phenyl]-4-pyrazin-2-yl-pyridine-2-carboxamide]
- Ki [1]: 0.08 nM
- IC50 ([2]; Homo sapiens, HeLa): ≥ 2000 nM
- IC50 ([3]; Homo sapiens): 183 nM

Compound: CN1CC[C@@](O)(C#Cc2cc(-c3ccc(N)c(C(N)=O)n3)ccc2F)C1=O [Example 152, 3-amino-6-[4-fluoro-3-[2-[(3R)-3-hydroxy-l-methyl-2-oxo-pyrrolidin-3-yl]ethynyl]phenyl] pyridine-2-carboxamide]
- Ki [1]: < 0.05 nM
- IC50 ([2]; Homo sapiens, HeLa): > 2000 nM
- IC50 ([3]; Homo sapiens): 46 nM

Compound: CN1CC[C@@](O)(C#Cc2cccc(-c3ncc(N[C@H]4CCOC4)c(C(N)=O)n3)c2)C1=O [Example 142, 2-[3-[2-[(3R)-3-hydroxy-1-methyl-2-oxo-pyrrolidin-3-yl]ethynyl]phenyl]-5-[[(3S)-tetrahydrofuran-3-yl]amino] pyrimidine-4-carboxamide]
- Ki [1]: 0.24 nM
- IC50 ([2]; Homo sapiens, HeLa): ≥ 20000 nM
- IC50 ([3]; Homo sapiens): 14.8 nM

Compound: Cc1cnn(-c2cc(C(N)=O)nc(-c3cccc(C#C[C@]4(O)CCN(C)C4=O)c3)n2)c1 [Example 104, 2-[3-[2-[(3R)-3-hydroxy-1-methyl-2-oxo-pyrrolidin-3-yl]ethynyl]phenyl]-6-(4-methylpyrazol-1-yl) pyrimidine-4-carboxamide]
- Ki [1, 4]: 0.4 nM
- IC50 [2]: ≥ 20000 nM
- IC50 [3]: 69.2 nM

Compound: CN1CC[C@@](O)(C#Cc2cccc(-c3nc(NC4CC4)cc(C(N)=O)n3)c2)C1=O [Example 9, 6-(cyclopropylamino)-2-[3-[2-[(3R)-3-hydroxy-1-methyl-2-oxo-pyrrolidin-3-yl]ethynyl]phenyl] pyrimidine-4-carboxamide]
- Ki [1]: 1.24 nM
- IC50 ([2]; Homo sapiens, HeLa): > 20000 nM
- IC50 ([3]; Homo sapiens): 270 nM

Compound: COc1ccc2nc(-c3cccc(C#C[C@]4(O)CCN(C)C4=O)c3)nc(C(N)=O)c2c1 [Example 93, 2-[3-[2-[(3R)-3-hydroxy-1-methyl-2-oxo-pyrrolidin-3-yl]ethynyl]phenyl]-6-methoxy-quinazoline-4-carboxamide]
- Ki [1]: 0.15 nM
- IC50 ([2]; Homo sapiens, HeLa): 6320 nM
- IC50 ([3]; Homo sapiens): 21 nM
